The target in this assay is T1, JAK3 (recombinant human kinase domain; h-jak3(810-1124)) (Homo sapiens, UniProt P52333).
T1 construct: h-jak3(810- 1124)-sf9-c; made in house; host or cells: Sf9 insect cells
T1 sequence (P52333 810-1124): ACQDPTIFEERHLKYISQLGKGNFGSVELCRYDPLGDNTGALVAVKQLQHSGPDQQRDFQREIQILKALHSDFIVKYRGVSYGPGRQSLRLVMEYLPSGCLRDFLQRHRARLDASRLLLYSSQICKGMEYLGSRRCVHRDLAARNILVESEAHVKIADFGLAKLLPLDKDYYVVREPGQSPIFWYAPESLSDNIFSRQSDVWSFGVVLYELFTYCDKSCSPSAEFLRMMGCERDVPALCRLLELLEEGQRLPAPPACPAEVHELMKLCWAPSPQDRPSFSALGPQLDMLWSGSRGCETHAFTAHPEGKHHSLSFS
Description: Determination of IC50 of Janus Kinase (JAK) inhibition: JAK3, radioactive end-point assay with 33P-ATP. Format: biochemical. As to conditions: JAK3 kinase domain; ATP 1.5 uM, peptide 50 uM, 20 minutes, room temperature, 10% DMSO; read-out: Ic50 h-jak3(810-1124)-sf9-c:no additive.
Description: Determination of IC50 of Janus Kinase (JAK) Inhibition:
Enzymes and peptide substrate used are described below: • JAK1: Recombinant human kinase domain from Invitrogen (Cat # PV4774) • JAK3: Recombinant human kinase domain from Millipore (Cat #14-629) or prepared. • JAK2: Recombinant human kinase domain from Millipore (Cat #14-640) • Substrate: N-terminally biotinylated 14-mer peptide derived from activation loop of JAK1 with sequence of the peptide substrate: Biotin-[sequence]
Assay Conditions Used are Described Below: • Assay Buffer: JAK Kinase Buffer: 50 mM Hepes [pH 7.2], 10 mM MgCl2, 1 mM DTT, • 1 mg/ml BSA. The assay is carried out in this buffer. • Assay Format The kinase activity of all three JAK kinases is measured using a radioactive, end-point assay and with trace amounts of ^33P-ATP. The assays are carried out in 96-well polypropylene plates.
All concentrations are final in the reaction mixture and all incubations are carried at room temperature. […] Final concentration of DMSO in the reaction is 10%. • 2) Compounds are preincubated with enzyme (0.5 nM JAK3 (commercially available), 0.2 nM JAK3 (prepared), 1 nM JAK2, 5 nM JAK1) for 10 minutes. • 3) Reactions are initiated by the addition of a cocktail of the two substrates (ATP and peptide premixed in the JAK Kinase Buffer). In the JAK2/JAK3 assays, ATP and the peptide are used at concentrations of 1.5 uM and 50 uM, respectively. JAK1 assay is carried out at an ATP concentration of 10 uM and a peptide concentration of 50 uM. • 4) The duration of the assay for JAK2 and JAK3 is 20 minutes. JAK1 assay is carried out for 40 minutes. With all three enzymes, reactions are terminated by the addition of 0.5M EDTA to a final concentration of 100 mM. • 5) 25 ul of terminated reactions are transferred to 150 ul of a 7.5% (v/v) slurry of streptavidin-coated sepharose beads in MgCl2- and CaCl2-free 1× Phosphate Buffered Saline containing 50 mM of EDTA in 96-well, 1.2 um MultiScreen-BV filter plates. • 6) After a 30-minute incubation, the beads are washed under vacuum with the following buffers: • a. 3 to 4 washes with 200 ul of 2M NaCl. • b. 3 to 4 washes with 200 ul of 2M NaCl plus 1% (v/v) phosphoric acid. • c. 1 wash with water. • 7) Washed plates are dried in a 60° C. oven for between 1 to 2 hours. • 8) 70 ul of Microscint 20 scintillation fluid is added to each well of filter plates and after at least 30 minutes of incubation, radioactive counts are measured in a Perkin-Elmer microplate scintillation counter.
As usually defined, the IC50 is the concentration at which inhibition is half-maximal. Turning to `Cc1ccccc1CNC(=O)c1ccc(-c2cnc3[nH]cc(C(=O)N[C@@H](C)C(C)(C)C)c3n2)s1` [Example I-187, 2-[5-(2-Methyl-benzylcarbamoyl)-thiophen-2-yl]-5H-pyrrolo[2,3-b]pyrazine-7-carboxylic acid ((S)-1,2,2-trimethyl-propyl)-amide], the IC50 is 0.46 nM. Consider `C[C@H](NC(=O)c1c[nH]c2ncc(C3CC3)nc12)C(C)(C)C(F)(F)F` [Example I-54, 2-Cyclopropyl-5H-pyrrolo[2,3-b]pyrazine-7-carboxylic acid ((S)-3,3,3-trifluoro-1,2,2-trimethyl-propyl)-amide], for which the IC50 is 5.46 nM.

As to `C[C@H](Cc1cnc[nH]1)NC(=O)c1ccc(-c2cnc3[nH]cc(C(=O)N[C@@H](C)C(C)(C)C)c3n2)s1` [Example I-199, 2-{5-[(R)-2-(3H-Imidazol-4-yl)-1-methyl-ethylcarbamoyl]-thiophen-2-yl}-5H-pyrrolo[2,3-b]pyrazine-7-carboxylic acid ((S)-1,2,2-trimethyl-propyl)-amide], the IC50 came to 0.65 nM. On to `CN(C)c1cnc2[nH]cc(C(=O)NCC(C)(C)CO)c2n1` [Example I-4, 2-Dimethylamino-5H-pyrrolo[2,3-b]pyrazine-7-carboxylic acid (3-hydroxy-2,2-dimethyl-propyl)-amide], for which the IC50 worked out at 34.9 nM. In the case of `CC[C@H](NC(=O)c1c[nH]c2ncc(C3CC3)nc12)C(C)(C)O` [Example I-29, 2-Cyclopropyl-5H-pyrrolo[2,3-b]pyrazine-7-carboxylic acid ((S)-1-ethyl-2-hydroxy-2-methyl-propyl)-amide], the IC50 came to 54.3 nM.

On to `CC(C)(C)CNC(=O)c1c[nH]c2ncc(C3CC3)nc12` [Example I-55, 2-Cyclopropyl-5H-pyrrolo[2,3-b]pyrazine-7-carboxylic acid (2,2-dimethyl-propyl)-amide], for which the IC50 was 29.4 nM. With `C[C@H](NC(=O)c1c[nH]c2ncc(Oc3ccccc3)nc12)C(C)(C)C` [Example I-120, 2-Phenoxy-5H-pyrrolo[2,3-b]pyrazine-7-carboxylic acid ((S)-1,2,2-trimethyl-propyl)-amide] the figure was 24.4 nM; with `CCNC(=O)c1c[nH]c2ncc(Oc3cccc4[nH]ccc34)nc12` [Example I-275, 2-(1H-Indol-4-yloxy)-5H-pyrrolo[2,3-b]pyrazine-7-carboxylic acid ethylamide], 626 nM; with `CC(C)(C)[C@H](CC#N)NC(=O)c1c[nH]c2ncc(C3CC3)nc12` [Example I-77, 2-Cyclopropyl-5H-pyrrolo[2,3-b]pyrazine-7-carboxylic acid ((S)-1-cyanomethyl-2,2-dimethyl-propyl)-amide], 13.7 nM.

Consider `C[C@H](NC(=O)c1c[nH]c2ncc(-c3cn(-c4cccc(Cl)c4)cn3)nc12)C(C)(C)C` [Example I-145, 2-[1-(3-Chloro-phenyl)-1H-imidazol-4-yl]-5H-pyrrolo[2,3-b]pyrazine-7-carboxylic acid ((S)-1,2,2-trimethyl-propyl)-amide], for which the IC50 amounted to 4.61 nM. `C[C@H](NC(=O)c1c[nH]c2ncc(-c3ccc(C(=O)NCc4cccc(Cl)c4Cl)s3)nc12)C(C)(C)C` [Example I-186, 2-[5-(2,3-Dichloro-benzylcarbamoyl)-thiophen-2-yl]-5H-pyrrolo[2,3-b]pyrazine-7-carboxylic acid ((S)-1,2,2-trimethyl-propyl)-amide]: the IC50 is 0.46 nM.

With `C[C@H](NC(=O)c1c[nH]c2ncc(-c3ccc(C(=O)NCc4cccc(C(F)(F)F)c4)s3)nc12)C(C)(C)C` [Example I-207, 2-[5-(3-Trifluoromethyl-benzylcarbamoyl)-thiophen-2-yl]-5H-pyrrolo[2,3-b]pyrazine-7-carboxylic acid ((S)-1,2,2-trimethyl-propyl)-amide], the IC50 was determined as 0.73 nM.

In the case of `C[C@H](NC(=O)c1c[nH]c2ncc(-c3ccc(C(=O)NCCC(F)(F)F)s3)nc12)C(C)(C)C` [Example I-216, 2-[5-(3,3,3-Trifluoro-propylcarbamoyl)-thiophen-2-yl]-5H-pyrrolo[2,3-b]pyrazine-7-carboxylic acid ((S)-1,2,2-trimethyl-propyl)-amide], the IC50 stood at 0.18 nM.

For the origin of these results see US20140155376A1, “PYRROLOPYRAZINE KINASE INHIBITORS” (Hoffmann-La Roche Inc., priority 2010, published 2014).
